# Measured values published in patent US12258360B2, “Compositions and methods for treatment of anticancer-drug resistant cancers” (THE GEORGE WASHINGTON UNIVERSITY, priority 2020, dated 2025).
# Key:
# [1] = molecular target: T1, And-1 (Homo sapiens, UniProt O75717); experiment: immunoblot analysis of And-1 expression in IGROV1 cells; format: cell-based; parameters: endogenous in cells; host or cells: IGROV1 CR; details: immunoblot, read-out: IC50 for inhibition of And-1 expression
# T1 sequence (O75717 1-1129): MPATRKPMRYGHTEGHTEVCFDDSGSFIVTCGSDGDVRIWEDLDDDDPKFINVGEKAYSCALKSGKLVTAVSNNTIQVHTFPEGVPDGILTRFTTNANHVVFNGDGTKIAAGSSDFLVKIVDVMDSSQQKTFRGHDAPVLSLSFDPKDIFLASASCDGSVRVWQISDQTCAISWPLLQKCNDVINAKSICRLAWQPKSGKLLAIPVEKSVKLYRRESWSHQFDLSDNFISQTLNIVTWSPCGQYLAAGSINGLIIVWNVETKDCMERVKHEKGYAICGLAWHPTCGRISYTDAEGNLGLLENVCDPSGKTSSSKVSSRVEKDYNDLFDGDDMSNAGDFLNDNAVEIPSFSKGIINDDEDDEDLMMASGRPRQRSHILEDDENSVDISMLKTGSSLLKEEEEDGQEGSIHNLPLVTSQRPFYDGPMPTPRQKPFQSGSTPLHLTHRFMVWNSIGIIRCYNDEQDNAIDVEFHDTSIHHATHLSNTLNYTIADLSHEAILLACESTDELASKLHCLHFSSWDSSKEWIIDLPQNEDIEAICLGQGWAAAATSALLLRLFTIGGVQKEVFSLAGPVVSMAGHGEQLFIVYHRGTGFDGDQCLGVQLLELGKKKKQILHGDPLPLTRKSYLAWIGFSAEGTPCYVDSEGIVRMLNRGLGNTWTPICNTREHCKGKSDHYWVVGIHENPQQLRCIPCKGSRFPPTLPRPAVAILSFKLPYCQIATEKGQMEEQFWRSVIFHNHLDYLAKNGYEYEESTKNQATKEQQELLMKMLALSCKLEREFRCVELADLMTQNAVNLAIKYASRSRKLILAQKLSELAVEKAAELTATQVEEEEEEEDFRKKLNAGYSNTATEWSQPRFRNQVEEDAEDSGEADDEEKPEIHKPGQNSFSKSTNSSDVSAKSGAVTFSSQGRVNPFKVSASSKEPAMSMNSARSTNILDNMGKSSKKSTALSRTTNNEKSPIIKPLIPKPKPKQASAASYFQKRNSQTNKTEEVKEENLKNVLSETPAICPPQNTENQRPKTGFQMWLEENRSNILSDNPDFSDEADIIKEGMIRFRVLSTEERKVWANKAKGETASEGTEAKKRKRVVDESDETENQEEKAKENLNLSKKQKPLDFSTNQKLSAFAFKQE
# Experimental: The high IC50 of resveratrol compromises its potential clinical application; therefore, resveratrol was used as a lead compound to screen 12 analogs of resveratrol for potent compounds that can inhibit And-1 (FIG. 14). […] To perform immunoblot analyses, cells were first treated with increasing concentrations of the 12 analogs. After treatment, the cells were harvested and then lysed with RIPA buffer protease inhibitor and phosphatase inhibitor cocktail. Protein concentration was determined by the BCA protein assay. Equal amounts of whole cell lysates were separated on sodium dodecyl sulfate polyacrylamide gel electrophoresis (SDS-PAGE) and transferred onto nitrocellulose membranes. Membranes were then incubated in blocking solution (5% non-fat milk in 20 mM TRIS-HCl, 150 mM NaCl, 0.1% Tween-20) (TBST), followed by incubation with the indicated antibodies at 4° C. overnight. The membranes were then washed in TBST and incubated with HRP-conjugated secondary antibodies for 1 hour at room temperature (21° C.±2° C.). Antibody detection was performed with an enhanced chemiluminescence reaction.
# [2] = molecular target: T1, And-1; experiment: cellular thermal shift assay; format: binding; parameters: endogenous in cells; host or cells: IGROV1 CR; details: cells incubated 8 hours, compared to DMSO
# Experimental: To explore whether And-1 inhibitors directly bind to And-1, cellular thermal shift assays were performed in which a small molecule binds to a protein resulting in thermal stabilization of the protein. Briefly, cells were incubated with MG132 (10 μM), DHS, CH3, CH10 or DMSO for 8 hours. After washing with ice-cold PBS (suppled with Protease Inhibitor Cocktail), cells were aliquoted into PCR tubes (100 μL each) and then incubated at different temperatures (from 25° C. to 71° C.) for 4 minutes. After the cells were frozen and thawed twice using liquid nitrogen, proteins were isolated from the cells after centrifugation and incubated at 70° C. for 10 minutes for analysis by western blotting.
# [3] = tested on: recruitment of CtIP to DSB sites in IGROV1 cells; experiment: immunofluorescence assay of CtIP co-localization with γH2AX after micro-irradiation; format: cell-based, human; details: 1 μM, 30 minutes post irradiation
# Experimental: H2AX (H2A histone family member X) becomes phosphorylated on serine 139 (wherein the phosphorylated form is then called […]) as a reaction on DNA double-strand breaks (DSB). And-1 regulates DSB end resection by establishing a condition or acting as a platform for recruitment of the tumor suppressor protein CtIP—a CtBP (carboxy-terminal binding protein)-interacting protein, to the DSB sites. […] In brief, IGROV1 cells were cultured on coverslips coated with 0.01% of poly-L-lysine. After treatment, the cells were then washed once with PBS, then pre-extracted with 0.5% Triton X-100 extraction buffer (10 mM PIPES pH 7.0, 100 mM NaCl, 3 mM MgCl2 and 300 mM sucrose) on ice for 5 minutes. After washing with PBS, cells were fixed with 4% paraformaldehyde in PBS for 15 minutes. Cells were then washed and incubated for 10 minutes in blocking buffer (PBS containing 3% BSA and 0.02% Tween-20) and subsequently incubated for 1 hour with a primary antibody at room temperature. Cells were washed three times with PBS-T (PBS containing 0.02% Tween-20) and then incubated with a secondary antibody (e.g., rabbit Alexa Fluor-594 and mouse Alexa Fluor-488). After washing with PBS-T, cells were mounted with Fluoromount G containing DAPI (4′,6-diamidino-2-phenylindole—a fluorescent stain that binds strongly to adenine-thymine-rich regions in DNA). Slides were then imaged using a Nikon Eclipse 80i microscope. […]
# [4] = tested on: IGROV1 cells; experiment: flow cytometry (FACS) of propidium-iodide stained IGROV1 cells; format: cell-based, human; details: 1 μM
# [5] = tested on: IGROV1 CR xenograft; format: in vivo, mice
# Experimental: To evaluate the potency of And-1 inhibitors in vivo, IGROV1 or MCF7 cells were subcutaneously implanted into nude mice to form ovarian or breast tumors, respectively. In brief, 5-6 week-old female BALB/c athymic nude mice (CByJ.Cg-Foxn1nu/J, weighting 20-25 grams) were inoculated subcutaneously by injecting the OC cells, cisplatin resistant OC cells or breast cancer cells suspended in 100 μl ice-cold Matrigel/PBS (1:1, V:V; 5×10^6/mouse) into the dorsal flank of each mouse. When the average tumor volume reached 100-150 mm^3, the mice were randomized into subsequent experiment groups. For tumors treated with CH3 only, CH3 was given at 0 mg/kg, 20 mg/kg and 40 mg/kg via intraperitoneal injection twice a week for three weeks. […] The relative tumor volumes were calculated using the formula: a×(b^2)/2, for which a and b represented the longest and shortest diameters, respectively. During the drug treatment, the tumor volume and body weight were measured. Tumor samples were collected 4 days after final administration of the drug.
# To assess the efficacy of combination therapy with And-1 inhibitor and cisplatin in vivo, an IGROV1 CR xenograft was treated with vehicle, And-1 inhibitors, cisplatin or combination of cisplatin and And-1 inhibitor via intraperitoneal injection.
# [6] = molecular target: T1, And-1; experiment: inhibition of And-1 in OV90 CR cells; format: cell-based; parameters: endogenous in cells; details: inhibition of And-1, OV90 CR cells
# [7] = tested on: SREBP target gene SCD-1; experiment: RT-PCR detection of SCD-1 gene expression in AN3CA cells; format: cell-based, human; details: 10 μM; for Relative mRNA expression of SCD-1: 48 h, DMSO = 1
# Experimental: • 1. Experimental reagent • 2. The experimental steps are as follows: • 2.1 AN3CA cell recovery and culture (10% serum 1% double antibody in MEM medium); • 2.2 passages (passage at a ratio of 1:2); • 2.3 Place 6 well plates when the cell status is good, 5×10^5Well, culture overnight; • 2.4 adding medicine: diluting the final concentration of the drug with a culture medium to 10 μM, 2 mL/well; • 2.5 adding medicine for 48 h, and then extracting RNA; • 2.5.1 removing the culture medium, adding 0.5 mL/hole Trizol to lyse the cells, repeatedly blowing and beating the cells by a pipette after 5 min, completely lysing the cells, transferring the cells into a 1.5 mL EP tube without RNase, and standing the tube for 5 min; • 2.5.2 adding 200 µl chloroform, shaking rapidly, mixing, standing for 10 min 12000 rpm/15 min; • 2.5.3 carefully taking out the supernatant, transferring the supernatant into an EP tube, adding isopropanol with the same volume, reversing, uniformly mixing, standing for 10 min, and centrifuging at 12000 rpm/10 min; • 2.5.4 removing the supernatant, adding 1 mL of 75% ethanol for washing, centrifuging at 8000 rpm/5 min once, carefully removing the supernatant, standing at room temperature for 10 min to volatilize the ethanol, and dissolving the precipitate with 40 μL of DEPC treated water when the precipitate becomes transparent; • 2.5.5 RNA concentration was measured and DEPC-treated water was diluted to 100 ng/μL • 2.6 reverse transcription: Kit Takara (PrimeScript RT reagent Kit (Perfect Real Time)
# [8] = molecular target: T1, And-1; experiment: inhibition of And-1 in IGROV1 CR cells; format: cell-based; parameters: endogenous in cells; host or cells: IGROV1 CR; details: inhibition of And-1, IGROV1 CR cells
# [9] = tested on: AN3CA cells; experiment: cell proliferation assay (MTS) in AN3CA cells; format: cell-based, human; details: 48 h; for inhibition of AN3CA cell proliferation (in words): 10 μM
# Experimental: • 1. The experimental steps are as follows: • 1.1 AN3CA cell recovery and culture (MEM medium, 10% serum, 1% double antibody); • 1.2 Passages (passage at a ratio of 1:2); • 1.3 Place 96-well plate when the cell status is good, 1×10^4 Well, culture overnight; • culture medium with 10% defatted serum • 1.4 Adding medicine: diluting the final concentration of the drug with a culture medium to 10 μM, and treating for 48 h at 100 μL/well; • culture medium with 10% defatted serum • 1.5 Addition of 2 μL MTS/well, care taken to prevent bubble formation, 490 nm data after 1-4 h
# [10] = tested on: AN3CA cells; experiment: cell clonogenic assay in AN3CA cells; format: cell-based, human
# Experimental: • 1. The experimental steps are as follows: • 1.1 AN3CA cell recovery and culture (MEM medium, 10% serum, 1% double antibody); • 1.2 Passages (1:2 ratio passage); • 1.3 When the cell state is good, laying 6-hole plates, 500/hole, and culturing overnight; • 1.4 Adding medicine: […], 2 mL/well; • 1.5 Adding medicine in a liquid changing mode every two days; • 1.6 Frequent observation. The culture was terminated when macroscopic colonies appeared in the culture dish. The supernatant was discarded, carefully rinsed 2 times with PBS and air dried. Cells were fixed with 5 mL of 4% paraformaldehyde for 30 minutes or with methanol for 10 minutes. And (3) removing the stationary liquid after air drying, adding a proper amount of GIMSA, dyeing for 10-30 minutes by using the dyeing liquid, then slowly washing away the dyeing liquid by using running water, and air drying. • 1.7 Plates were inverted and overlaid with a piece of transparent film with grid and clones were counted either directly with the naked eye or with a microscope (low power) for clones larger than 10 cells. And finally calculating the clone formation rate. • 1.8 Percent colony formation rate (number of clones/number of inoculated cells)×100%
compound,measurement,setting,value
"Oc1ccc(/C=C/c2ccc(O)cc2)cc1 [DHS, reference compound]",IC50,[1],8.92 µM
same,thermal stabilization of And-1 protein at higher temperatures,[2],stabilized
"CC(=O)O.Cc1c(-c2ccc(O)cc2)n(Cc2ccc(OCCN3CCCCCC3)cc2)c2ccc(O)cc12 [BZA, reference compound]",recruitment of CtIP to DSB sites induced by micro-irradiation,[3],significantly decreased
same,percentage of cells in the S-phase,[4],reduced the percentage of cells in the S-phase
same,IC50,[1],0.32 µM
same,And-1 expression in tumor samples (IHC),[5]; IGROV1 CR xenograft,suppressed expression of And-1
same,"tumor growth, combination with cisplatin vs cisplatin alone","[5]; IGROV1 CR xenograft, cisplatin 8 mg/kg, CH3 20 mg/kg, BZA 2 mg/kg intraperitoneally, three weeks",excellent synergy in reducing tumor growth
same,"systemic toxicity of combination with cisplatin (body weight, H&E staining)","[5]; mouse, in vivo",no obvious systemic toxicity or side effect
"OB1OCc2cc(/C=C/c3cc(Cl)cc(Cl)c3)ccc21 [XIV, (E)-5-(3,5-dichlorostyryl)benzo[c][1,2]oxaborol-1(3H)-ol]",IC50,[6],29.9 µM
same,Relative mRNA expression of SCD-1,[7]; AN3CA cells,0.46
same,IC50,[8],25.7 µM
same,inhibition of AN3CA cell proliferation (in words),[9],different degrees of inhibition
same,inhibition of clonogenic rate,[10]; 5 μM,comparable to that of 10 μM BF 175
"OB1OCc2cc(/C=C/c3cccc(C(F)(F)F)c3)ccc21 [Compound II, (E)-5-(3-(trifluoromethyl)styryl)benzo[c][1,2]oxaborol-1(3H)-ol]",IC50,[6],21.1 µM
same,activity of reducing SCD-1 gene expression (in words),[7]; AN3CA cells,better than those of BF-175
same,Relative mRNA expression of SCD-1,[7]; AN3CA cells,0.39
same,inhibitory effect on Srebp,[7]; human endometrial cancer AN3CA cells,high inhibitory effect
same,IC50,[8],20.4 µM
same,inhibition of AN3CA cell proliferation (in words),[9],superior to BF 175
same,inhibition at 10 µM,"[9]; Homo sapiens, AN3-CA, MTS",80%
same,inhibition of clone formation rate,[10]; 10 μM,completely inhibit
